ChEMBL document CHEMBL5727003, “Therapeutic inhibitory compounds” (2019)

Molecular target: Plasma kallikrein (Homo sapiens, UniProt P03952)
Experiment: In Vitro Enzyme Inhibition: A 10 mM solution of the test compound was made in DMSO. This solution was serially diluted 1:5 in DMSO to yield 2000, 400, 80, 16, 3.2, 0.64, 0.128, 0.0256 and 0.00512 μM compound test solutions. A control tube containing only DMSO is included. 16 μL of each compound test solution was combined with 384 μL of assay buffer (50 mM Tris-HCl pH 7.5, 150 mM NaCl, 0.01% Triton X-100) to yield a “4× test compound buffer stock”.Separately, a 40 nM solution of human Plasma Kallikrein (Abcam) and a 93.6 μM solution Pro-Phe-Arg-AMC (Bachem) were made using assay buffer. These solutions are hereby referred to as 4×hPK and 2×PFR-AMC, respectively.60 μL of each 4× test compound buffer stock was combined with 60 μL of 4×hPK to yield 120 μL of “2× test compound buffer stock/2×hPK”. 50 μL was removed from this mixture and placed into duplicate wells on a Microfluor 1Black U-bottom microtiter plate (Thermo Scientific). This plate was incubated for 5 minutes at 37° C. To each well, 50 μL of pre-warmed 2×PFR-AMC was added to start the enzymatic reaction. Cleavage of PFR-AMC was monitored in a Biotek Synergy H4 reader set at 37° C. Readings are taken every 43 seconds for 1 hour. The highest mean velocity over 20 reads (˜15 minutes) is used to calculate the IC50. The IC50 is calculated using the Gen5 (Biotek Instruments).

Plasma kallikrein, sequence (P03952 20-390 limits assumed): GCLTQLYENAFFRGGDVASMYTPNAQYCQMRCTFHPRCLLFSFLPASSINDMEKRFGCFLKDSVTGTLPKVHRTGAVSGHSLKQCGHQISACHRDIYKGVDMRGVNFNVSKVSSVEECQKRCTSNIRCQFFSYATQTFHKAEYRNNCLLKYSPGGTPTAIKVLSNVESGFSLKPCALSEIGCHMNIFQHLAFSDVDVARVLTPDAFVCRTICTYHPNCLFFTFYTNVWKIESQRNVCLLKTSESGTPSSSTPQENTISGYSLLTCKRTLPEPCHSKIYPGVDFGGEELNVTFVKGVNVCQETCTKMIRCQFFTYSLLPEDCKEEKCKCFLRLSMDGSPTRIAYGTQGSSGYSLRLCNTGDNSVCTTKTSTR
Plasma kallikrein, sequence (P03952 391-638 limits assumed): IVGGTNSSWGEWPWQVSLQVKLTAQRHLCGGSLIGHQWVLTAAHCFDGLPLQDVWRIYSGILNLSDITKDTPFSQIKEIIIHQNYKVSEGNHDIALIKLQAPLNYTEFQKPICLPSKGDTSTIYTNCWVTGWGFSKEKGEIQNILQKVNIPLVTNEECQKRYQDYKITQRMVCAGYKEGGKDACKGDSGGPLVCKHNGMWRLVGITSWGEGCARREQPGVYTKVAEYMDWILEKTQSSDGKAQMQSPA

Compound	IC50
Cc1cc(N)nc(C)c1CNC(=O)c1nn(Cc2ccc3ncc(Cl)cc3c2)nc1C(F)(F)F	< 100 nM
Cc1cc(N)nc(C)c1CNC(=O)c1cn(Cc2ccc3ncc(Cl)cc3c2)c2cccnc12	< 100 nM
Cc1cc(N)nc(C)c1CNC(=O)c1cn(Cc2ccc3ncc(Cl)cc3c2)c(CO)n1	< 100 nM
Cc1cc(N)nc(C)c1CNC(=O)c1ccn(Cc2ccc3ncc(Cl)cc3c2)n1	< 100 nM
Cc1cc(N)nc(C)c1CNC(=O)c1cc(C(F)(F)F)n(Cc2ccc3ncc(Cl)cc3c2)n1	1000 to 10000 nM
